Experimental data taken from US20110223630A1, “METHOD FOR SCREENING FOR COMPOUNDS THAT INHIBIT NEURODEGENERATION” (priority 2008, published 2011).
Residues, ends and D or L forms follow the SMILES beside them. *: point of attachment. Cbz = O=C(OCc1ccccc1)*; CH2F = FC*

Experiments:
[1] = tested on: commissural neurons; experiment: Dorsal spinal cord (commissural explant) survival assay; format: cell-based, rat
Protocol: To examine functional roles of DR6 in axonal degeneration and programmed cell death of commissural neurons, an RNAi-based dorsal spinal cord survival assay (Kennedy et al., Cell, 78:425-435 (1994); Wang et al., supra, 1999) was conducted (see FIG. 3). E13 rat or E11.5 mouse embryos were placed in L15 medium (Gibco) and siRNAs (IDT) together with green fluorescent protein (“GFP”)-encoding plasmids were injected into the neural tubes. The siRNAs and plasmids were then delivered to dorsal progenitor cells by electroporation. Dorsal spinal cord explants were dissected out, embedded into a 3D-collagen gel matrix, and cultured in Opti-MEM/F12 medium (Invitrogen) with recombinant netrin-1 ([…]) and 5% horse serum (Sigma) at 37° C. in a 5% CO2 environment. Within 16 hours in response to chemo-attractant netrin-1, commissural axons grow out of the explant into the collagen matrix gel (Kennedy et al., supra, 1994). Commissural axons are visualized by GFP fluorescence by observation using an inverted microscope. […]
Control non-targeting, or targeting DR6 siRNA #2, or targeting DR6 siRNA #3 (IDT) together with either wild-type or mis-match DR6 cDNA and GFP-encoding plasmids. […] Within 16 hours in response to chemo-attractant netrin-1 commissural axons grow out of the explant into the collagen matrix gel (Kennedy et al., Cell 78:425-435 (1994). Commissural axons are visualized by GFP fluorescence by observation using inverted microscope. After 48 hours in culture in the absence of trophic factor support derived from the floorplate, commissural neurons undergo programmed cell death and their axons degenerate (Wang et al., Nature, 401:765-769 (1999)) (FIG. 4B). However, the axonal degeneration program can be blocked by introduction of a targeting DR6-specific siRNA #3 (FIG. 4B). […]
A dorsal spinal cord survival assay (as described in Example 2 above) was conducted using anti-DR6 antibodies. Microscopic observation (using green fluorescence channel for GFP) was employed to visualize commissural axons. […]

[2] = patients taking stable doses of Donepezil; changes from baseline; cited from earlier work
[3] = tested on: sensory neurons; experiment: NGF deprivation assay in Campenot Chambers, local sensory axon degeneration (TUJ1 stain); format: cell-based, mouse
Protocol: Materials and methods used to generate the data shown in this figure are as follows. To examine whether ligand is required for DR6 function in sensory axonal degeneration, a compartmented culture analysis of sensory axon growth and degeneration was carried out as follows. A Campenot nerve cell chamber system was used to isolate neuronal processes (axons) from the cell bodies in different compartments (separate fluid environments), analogous to neuronal cell bodies in one location of the nervous system projecting their axons to a distal target in another location. The assay was carried out as originally described by Campenot (Campenot et al., J. Neurosci. 11(4): 1126-39 (1991)) with the following modifications. Briefly, 35-mm tissue culture dishes were coated with PDL/Laminin and scratched with a pin rake (Tyler Research) to generate tracks, as illustrated for example in FIGS. 1 and 4 of Campenot et al., supra. […]
To trigger local axonal degeneration, NGF-containing medium from axonal compartments was substituted with neurobasal medium with an NGF blocking antibody (anti-NGF, Genentech, Inc., 20 ug/ml). Zero hours, 6 hours, or 24 to 48 hours following NGF deprivation, sensory neurons were fixed in 4% PFA for 30 minutes at room temperature and processed for immunofluorescence staining with axonal marker TUJ-1 (Covance, 1:500 dilution) to visualize degenerating axons by fluorescence microscopy (FIG. 11B) (as above described in Example 7). […]
To examine whether ligand is required for DR6 function in axonal degeneration program triggered by NGF withdrawal, 30 μg/ml of hDR6-ECD-Fc immunoadhesin protein (described in Example 3 above) or 30 μg/ml of a control Fc (Genentech, Inc.) was included together with anti-NGF treatment in axonal compartments of Campenot Chambers. Zero to 24 hours after NGF deprivation, axons in Campenot Chambers were fixed with 4% PFA/PBS and visualized by immuno-fluorescence staining with TUJ-1 (1:500, Covance)/secondary antibody conjugated to a fluorescence group Alexa 488 (Molecular Probes, BD) (FIG. 11B). […]

[4] = tested on: DR6-AP binding sites on BAX null sensory axons; experiment: In situ DR6-AP sensory axon binding assay after NGF withdrawal; format: cell-based, mouse; conditions: OM99-2 1 uM; BAX null sensory axons E12.5
Protocol: For the in situ DR6-AP sensory axon binding assay, either wild-type or Bax null sensory explants were cultured in Neurobasal medium/B27 (Invitrogen) as outlined in the Examples 7-8 above, with 50 ng/ml NGF (Roche). Two days post-plating, DRG explants were either left untreated or deprived from NGF as described above in Examples 7-8. Bax inhibitory peptide was added where indicated on FIG. 12B (10 uM, Bax-V5, Tocris). Twelve hours post-NGF deprivation, DRG explants were washed twice with the binding buffer (HBSS, Gibco Cat. No. 14175-095, with 0.2% BSA, 0.1% NaN3, 5 mM CaCl2, 1 mM MgCl2, 20 mM HEPES, pH=7.0). AP binding assay was then carried out by making a 1:1 mixture of DR6-AP conditioned medium and the binding buffer (or control AP conditioned medium and the binding buffer), which was applied directly to DRG explants in 8-well culture slides (Becton, Dickinson and Company) and incubated for 90 minutes at room temperature.
Following the incubation, unbound DR6-AP proteins were washed away by rinsing DRG explants five times with the binding buffer. DRG explants were then fixed with 3.7% formaldehyde diluted in PBS, for 12 minutes at room temperature. The remaining formaldehyde was removed by rinsing DRG explants 3 times with HBS buffer (20 mM HEPES pH=7.0, 150 mM NaCl). Endogenous AP activity was blocked by heat inactivation at 65° C. in HBS buffer for 30 minutes. […]

For “5′-CAAUAGGUCAGGAAGAUGGCU-3′ [DR6-specific siRNA #3]”, the “axonal degeneration of commissural neurons” value ([1]; DR6 siRNA electroporated with GFP plasmid, 48 hours in culture without floorplate trophic support) was “blocked”.
In the case of `CC12CC3CC(C)(C1)CC(N)(C3)C2` [Memantine], the “outcome measures SIB, ADCS-ADL19, CIBIC-Plus, NPI, BGP vs placebo” value [2] is listed as “exhibiting a benefit over placebo”.
With `CC[C@H](C)[C@H](NC(=O)OCc1ccccc1)C(=O)N[C@@H](CCC(=O)OC)C(=O)N[C@H](C(=O)N[C@@H](CC(=O)OC)C(=O)CF)[C@@H](C)O` [Z-IETD-FMK] (Cbz-IE(OMe)TD(OMe)-CH2F) the “sensory axonal degeneration after anti-NGF” value ([3]; neurons cultured 5 days, then 24 hours, SP 600125 1 uM, Z-IETD-FMK 10 uM, Z-DEVD-FMK 10 uM) was “delayed”.
For (L)-HIV-TAT48-57-PP-JBD20 [L-JNK-I], the “axonal degeneration of commissural neurons” value ([1]; peptide JNK inhibitor at 1 μM) was “partially blocked axonal degeneration”.
For OM99-2, the “disappearance of DR6-AP binding sites from sensory axons following NGF withdrawal” value [4] was “can block the disappearance of DR6-AP binding sites” and the “sensory axonal degeneration in absence of NGF” value ([3]; BACE inhibitor 1 uM, FIG. 15C) was “blocked”.
With “hDR6-ECD-Fc: human DR6 extracellular domain sequence fused with Fc, SEQ ID NO: 4” the commissural axon degeneration ([1]; 48 hours, 30 μg/ml or 10 μg/ml hDR6-ECD-Fc) was “delayed” and the “sensory axonal degeneration induced by NGF withdrawal” value ([3]; 30 μg/ml in axonal compartment with anti-NGF, 0, 6 and 24 hours, vs control Fc) was “delayed sensory axonal degeneration”.
